Measured values as given in patent US8153818B2, “Triazolyl phenyl benzenesulfonamides” (ChemoCentryx, Inc., priority 2006, dated 2012).

Biological target: T1, CCR9 (Homo sapiens, UniProt P51686)
T1 construct: chemokine expressing cells (such as THP-1 cells for CCR2 assay or MOLT-4 cells for CCR9 assay); host or cells: MOLT-4
T1 sequence (P51686 1-369): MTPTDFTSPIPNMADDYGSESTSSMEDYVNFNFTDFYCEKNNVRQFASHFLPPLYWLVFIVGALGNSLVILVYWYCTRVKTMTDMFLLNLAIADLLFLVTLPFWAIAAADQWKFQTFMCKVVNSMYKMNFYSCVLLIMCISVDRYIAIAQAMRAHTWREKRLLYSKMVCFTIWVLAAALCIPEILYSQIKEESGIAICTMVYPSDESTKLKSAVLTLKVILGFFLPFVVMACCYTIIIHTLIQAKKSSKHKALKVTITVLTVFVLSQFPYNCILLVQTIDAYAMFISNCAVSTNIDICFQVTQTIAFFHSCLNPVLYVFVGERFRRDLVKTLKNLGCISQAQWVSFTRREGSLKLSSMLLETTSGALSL
Assay: CCR9 activity in one of the chemotaxis, binding or calcium mobilization assays
Format: cell-based
Details: assay not specified per compound
Protocol: Conventional migration assay was used to determine the efficacy of potential receptor antagonists in blocking migration mediated through chemokines (such as CCR2 or CCR9). This assay was routinely performed using the ChemoTX® microchamber system with a 5-μm pore-sized polycarbonate membrane. To begin such an assay, chemokine expressing cells (such as THP-1 cells for CCR2 assay or MOLT-4 cells for CCR9 assay) were harvested by centrifugation of cell suspension at 1000 RPM on a GS-6R Beckman centrifuge. The cell pellet was resuspended in chemotaxis buffer (HBSS with 0.1% BSA) at 10×10^6 cells/mL for CCR2 assay (5×10^6 cells/mL for CCR9 assay). Test compounds at desired concentrations were prepared from 10 mM stock solutions by serial dilutions in chemotaxis buffer. An equal volume of cells and compounds were mixed and incubated at room temperature for 15 minutes. Afterwards, 20 μL of the mixture was transferred onto the porous membrane of a migration microchamber, with 29 μL of chemokine ligand (0.1 nM chemokine MCP-1 protein for CCR2 assay or […] chemokine TECK protein for CCR9 assay) placed at the lower chamber. Following an incubation at 37° C. (90-minute for CCR2; 150-minute for CCR9), during which cells migrated against the chemokine gradient, the assay was terminated by removing the cell drops from atop the filter. To quantify cells migrated across the membrane, 5 μL of 7×CyQUANT® solution was added to each well in the lower chamber, and the fluorescence signal measured on a Spectrafluor Plus fluorescence plate reader (TECAN, Durham, N.C.). The degree of inhibition was determined by comparing migration signals between compound-treated and untreated cells. IC50 calculation was further performed by non-linear squares regression analysis using Graphpad Prism (Graphpad Software, San Diego, Calif.).
Calcium flux assay measures an increase in intracellular calcium following ligand-induced receptor activation. In the screen of chemokine antagonists, it was used as a secondary assay carried out on a FLIPR® machine (Molecular Devices, Mountain View, Calif.). To begin an assay, chemokine expressing cells (such as THP-1 cells for CCR2 assay or MOLT-4 cells for CCR9 assay) were harvested by centrifugation of cell suspension, and resuspended to 1.5×10^6 cells/mL in HBSS (with 1% fetal calf serum). Cells were then labeled with a calcium indicator dye Fluo-4 AM for 45 minutes at 37° C. with gentle shaking. Following incubation, cells were pelletted, washed once with HBSS and resuspended in the same buffer at a density of 1.6×10^6 cells/mL. One hundred microliters of labeled cells were mixed with 10 μL of test compound at the appropriate concentrations on an assay plate. Chemokine protein (MCP-1 at a final concentration of 0.1 nM for CCR2 assay or TECK at a final concentration of 25 nM for CCR9 assay) to activate the receptor. The degree of inhibition was determined by comparing calcium signals between compound-treated and untreated cells. IC50 calculations were further performed by non-linear squares regression analysis using Graphpad Prism (Graphpad Software, San Diego, Calif.). […]
In the tables below, structures and activity are provided for representative compounds described herein. Activity is provided as follows for either or both of the chemotaxis assay and/or calcium mobilization assays, described above.

IC50 [nM] | SMILES
< 1000 | CC(C)n1cnnc1-c1cc(Cl)ccc1NS(=O)(=O)c1ccc(C(C)(C)C)cc1 [Compound 1, 4-tert-butyl-N-(4-chloro-2-(4-isopropyl-4H-1,2,4-triazol-3-yl)phenyl)benzenesulfonamide]
< 1000 | CC(C)(C)c1ccc(S(=O)(=O)Nc2ccc(Cl)cc2-c2nncn2-c2ccccc2)cc1 [Compound 2, 4-tert-butyl-N-(4-chloro-2-(4-phenyl-4H-1,2,4-triazol-3-yl)phenyl)benzenesulfonamide]
< 1000 | Cc1nnc(-c2cc(Cl)ccc2NS(=O)(=O)c2ccc(C(C)(C)C)cc2)n1C(C)C [Compound 3, 4-tert-butyl-N-(4-chloro-2-(4-isopropyl-5-methyl-4H-1,2,4-triazol-3-yl)phenyl)benzenesulfonamide]
< 1000 | Cc1nnc(-c2cc(Cl)ccc2NS(=O)(=O)c2ccc(C(C)(C)C)cc2)n1-c1ccccc1 [Compound 4, 4-tert-butyl-N-(4-chloro-2-(5-methyl-4-phenyl-4H-1,2,4-triazol-3-yl)phenyl)benzenesulfonamide]
< 1000 | CCn1c(C)nnc1-c1cc(Cl)ccc1NS(=O)(=O)c1ccc(C(C)(C)C)cc1 [Compound 5, 4-tert-butyl-N-(4-chloro-2-(4-ethyl-5-methyl-4H-1,2,4-triazol-3-yl)phenyl)benzenesulfonamide]
< 1000 | Cc1nnc(-c2cc(Cl)ccc2NS(=O)(=O)c2ccc(C(C)(C)C)cc2)n1C [Compound 6, 4-tert-butyl-N-(4-chloro-2-(4,5-dimethyl-4H-1,2,4-triazol-3-yl)phenyl)benzenesulfonamide]
< 1000 | Cc1nnc(-c2cc(Cl)ccc2NS(=O)(=O)c2ccc(C(C)(C)C)cc2)n1C1CC1 [Compound 7, 4-tert-butyl-N-(4-chloro-2-(4-cyclopropyl-5-methyl-4H-1,2,4-triazol-3-yl)phenyl)benzenesulfonamide]
< 1000 | CC(C)c1nnc(-c2cc(Cl)ccc2NS(=O)(=O)c2ccc(C(C)(C)C)cc2)n1C [Compound 8, 4-tert-butyl-N-(4-chloro-2-(5-isopropyl-4-methyl-4H-1,2,4-triazol-3-yl)phenyl)benzenesulfonamide]
< 1000 | Cn1c(-c2cc(Cl)ccc2NS(=O)(=O)c2ccc(C(C)(C)C)cc2)nnc1C1CCOCC1 [Compound 9]
< 1000 | COCc1nnc(-c2cc(Cl)ccc2NS(=O)(=O)c2ccc(C(C)(C)C)cc2)n1C [Compound 10, 4-tert-butyl-N-(4-chloro-2-(5-(methoxymethyl)-4-methyl-4H-1,2,4-triazol-3-yl)phenyl)benzenesulfonamide]
< 1000 | CC(C)c1nnc(-c2cc(Cl)ccc2NS(=O)(=O)c2ccc(C(C)(C)C)cc2)n1C(C)C [Compound 11, 4-tert-butyl-N-(4-chloro-2-(4,5-diisopropyl-4H-1,2,4-triazol-3-yl)phenyl)benzenesulfonamide]
< 1000 | Cc1nnc(-c2cc(Cl)ccc2NS(=O)(=O)c2ccc(C(C)(C)C)cc2)n1C1CCOCC1 [Compound 12]
< 1000 | CCc1nnc(-c2cc(Cl)ccc2NS(=O)(=O)c2ccc(C(C)(C)C)cc2)n1C(C)C [Compound 13, 4-tert-butyl-N-(4-chloro-2-(5-ethyl-4-isopropyl-4H-1,2,4-triazol-3-yl)phenyl)benzenesulfonamide]
< 1000 | Cc1nnc(-c2cc(Cl)ccc2NS(=O)(=O)c2ccc(C(C)(C)C)cc2)n1C1CCCC1 [Compound 14, 4-tert-butyl-N-(4-chloro-2-(4-cyclopentyl-5-methyl-4H-1,2,4-triazol-3-yl)phenyl)benzenesulfonamide]
< 1000 | Cc1nnc(-c2cc(Cl)ccc2NS(=O)(=O)c2ccc(OC(C)C)cc2)n1C(C)C [Compound 15, N-(4-chloro-2-(4-isopropyl-5-methyl-4H-1,2,4-triazol-3-yl)phenyl)-4-isopropoxybenzenesulfonamide]
< 1000 | Cc1nnc(-c2cc(Cl)ccc2NS(=O)(=O)c2ccc(C(C)(C)C)cc2)n1-c1cc[nH]n1 [Compound 16]
< 1000 | CCn1c(C)nnc1-c1cc(Cl)ccc1NS(=O)(=O)c1ccc(OC(C)C)cc1 [Compound 17, N-(4-chloro-2-(4-ethyl-5-methyl-4H-1,2,4-triazol-3-yl)phenyl)-4-isopropoxybenzenesulfonamide]
< 1000 | CC(C)n1cnnc1-c1ccc(Cl)cc1NS(=O)(=O)c1ccc(C(C)(C)C)cc1 [Compound 18, 4-tert-butyl-N-(5-chloro-2-(4-isopropyl-4H-1,2,4-triazol-3-yl)phenyl)benzenesulfonamide]
< 1000 | Cc1nnc(-c2cc(Cl)ccc2NS(=O)(=O)c2ccc(C(C)(C)C)cc2)n1CC(C)C [Compound 19, 4-tert-butyl-N-(4-chloro-2-(4-isobutyl-5-methyl-4H-1,2,4-triazol-3-yl)phenyl)benzenesulfonamide]
< 1000 | Cc1nnc(-c2cc(Cl)ccc2NS(=O)(=O)c2ccc(C(C)(C)C)cc2)n1C1CCNCC1 [Compound 20]
< 1000 | COCc1nnc(-c2cc(Cl)ccc2NS(=O)(=O)c2ccc(C(C)(C)C)cc2)n1C1CCOCC1 [Compound 21, 4-tert-butyl-N-(4-chloro-2-(5-(methoxymethyl)-4-(tetrahydro-2H-pyran-4-yl)-4H-1,2,4-triazol-3-yl)phenyl)benzenesulfonamide]
< 1000 | CCn1cnnc1-c1cc(F)c(F)cc1NS(=O)(=O)c1ccc(C(C)(C)C)cc1 [Compound 22, 4-tert-butyl-N-(2-(4-ethyl-4H-1,2,4-triazol-3-yl)-4,5-difluorophenyl)benzenesulfonamide]
< 1000 | CCn1cnnc1-c1ccc(F)cc1NS(=O)(=O)c1ccc(C(C)(C)C)cc1 [Compound 23, 4-tert-butyl-N-(2-(4-ethyl-4H-1,2,4-triazol-3-yl)-5-fluorophenyl)benzenesulfonamide]
< 1000 | Cc1nnc(-c2ccc(F)cc2NS(=O)(=O)c2ccc(C(C)(C)C)cc2)n1C(C)C [Compound 24, 4-tert-butyl-N-(5-fluoro-2-(4-isopropyl-5-methyl-4H-1,2,4-triazol-3-yl)phenyl)benzenesulfonamide]
< 1000 | CCn1cnnc1-c1c(NS(=O)(=O)c2ccc(C(C)(C)C)cc2)ccc(Cl)c1F [Compound 25, 4-tert-butyl-N-(4-chloro-2-(4-ethyl-4H-1,2,4-triazol-3-yl)-3-fluorophenyl)benzenesulfonamide]
< 1000 | Cc1nnc(-c2cc(Cl)ccc2NS(=O)(=O)c2ccc(C(C)(C)C)cc2)n1[C@@H](C)CO [Compound 26]
< 1000 | CC(=O)NCCn1c(C)nnc1-c1cc(Cl)ccc1NS(=O)(=O)c1ccc(C(C)(C)C)cc1 [Compound 27, N-(2-(3-(2-(4-tert-butylphenylsulfonamido)-5-chlorophenyl)-5-methyl-4H-1,2,4-triazol-4-yl)ethyl)acetamide]
< 1000 | Cc1nnc(-c2c(NS(=O)(=O)c3ccc(C(C)(C)C)cc3)ccc(Cl)c2F)n1C [Compound 28, 4-tert-butyl-N-(4-chloro-2-(4,5-dimethyl-4H-1,2,4-triazol-3-yl)-3-fluorophenyl)benzenesulfonamide]
< 1000 | CCn1c(C)nnc1-c1c(NS(=O)(=O)c2ccc(C(C)(C)C)cc2)ccc(Cl)c1F [Compound 29, 4-tert-butyl-N-(4-chloro-2-(4-ethyl-5-methyl-4H-1,2,4-triazol-3-yl)-3-fluorophenyl)benzenesulfonamide]
< 1000 | Cn1cnnc1-c1cc(Cl)ccc1NS(=O)(=O)c1ccc(C(C)(C)C)cc1 [Compound 30, 4-tert-butyl-N-(4-chloro-2-(4-methyl-4H-1,2,4-triazol-3-yl)phenyl)benzenesulfonamide]
